Test results: patent publication US20080293700A1, “Compositions and Methods Relating to Novel Compounds and Targets Thereof” (priority 2004, published 2008)
Like-named read-outs stand apart in the source and are kept apart here.

Experiments:
[1] = biological target: T1, ATP hydrolytic activity of sub-mitochondrial particles (SMPs), mitochondrial F1Fo-ATPase (Bos taurus, UniProt P13621); assay: NADH-coupled kinetics assay of ATP hydrolysis by sub-mitochondrial particles; assay type: biochemical, bovine; conditions: for Ki: non-competitive (mixed) model; for Km / Vmax: three-dimensional fit
T1 construct: from tissue; host or cells: sub-mitochondrial particles (SMPs)
Procedure: The mechanism of inhibition for ATP hydrolysis induced by Bz-423 and derivatives of Bz-423 was assayed using an NADH-coupled assay. The ATP hydrolytic activity of the sub-mitochondrial particles (hereinafter SMPs) was measured by coupling the production of ADP to the oxidation of NADH via the pyruvate kinase and lactate dehydrogenase reaction. Briefly, ATP hydrolysis SMPs (0.8 mg; 7.14 μg/well) were added to hydrolysis buffer (100 mM Tris-HCl, pH 8.0 at 25° C., 4 mM MgCl2, […], 0.2 mM EDTA) and vortexed. 125 μL of this suspension was added to each well of a 96-well plate containing 50× drug or DMSO vehicle control (1% DMSO, final). The 96-well plate was then placed at 30° C. in a Molecular Devices Versamax tunable microplate reader and allowed to incubate for 5 min. During this 5 min, a substrate-coupling mixture was prepared (containing X mM ATP, 0.2 mM NADH, 1 mM phosphoenolpyruvate (PEP), 2 U/mL pyruvate kinase (PK), and 2 U/mL lactate dehydrogenase (LDH) in hydrolysis buffer). The rate of hydrolysis was assayed over a range of ATP concentrations (0.1-4.0 mM) at each [Bz]. 125 μL of the substrate-coupling mixture was added to each well, and the rate of NADH oxidation was monitored for 10 min at 340 nm, 30° C. The measured decrease in absorbance over time (in OD/min) was converted to μmol ATP hydrolyzed/min/mg SMP (ε=6220). The velocity data was plotted versus [ATP] for each concentration of [Bz] (e.g., 1-8 μM) (see, e.g., FIG. 1) and then fit to the Michaelis-Menten equation:
m1*m0/(1+m0/m2) • where m1=Vmax/Km and m2=Km The apparent kinetic parameters for each [Bz] were obtained from these curve fits to generate secondary plots of [Bz] versus Vmax, [Bz] versus Km, and [Bz] versus Vmax/Km (see, e.g., FIG. 2). The o-tert-Butyl derivative, shown below,
To obtain Ki values and confirm that an uncompetitive model of inhibition was the best fit for the data, three-dimensional fits of the velocity, [ATP], and [Bz] were performed to solve for Vmax, Km, Ki, and Ki* [where Ki indicates Bz binding to the ATPase with the third catalytic site empty (mixed-type inhibition only), and Ki* indicates binding when all three sites have substrate bound (uncompetitive and mixed-type inhibition)]. The following equations were used:
Vo=Vmax[S]/((1+[I]/Ki)Km+[S])
Vo=Vmax[S]/((1+[I]/Ki*) [S]+Km)
Vo=Vmax[S]/((1+[I]/Ki)Km+(1+[I]Ki*)[S])

F1Fo-ATPase = conditions: cited from earlier work
[2] = binding with third catalytic site empty
[3] = non-competitive (mixed) inhibition model

Structure (SMILES)	mechanism of inhibition of ATP hydrolysis [1]	Ki ([1]; binding when all three sites have substrate bound, read-out: Ki*)	Ki [1, 2]	Km ([1]; competitive inhibition model)	Vmax ([1]; competitive inhibition model)	Vmax [1, 3]	Km ([1]; uncompetitive inhibition model)	Vmax ([1]; uncompetitive inhibition model)	mode of inhibition of the F1Fo-ATPase (F1Fo-ATPase)	effect on apparent Km ([1]; secondary plot [Bz] versus Km, [Bz] 1-8 μM)	effect on apparent Vmax ([1]; secondary plot [Bz] versus Vmax, [Bz] 1-8 μM)	IC50 (F1Fo-ATPase)
CN1C(=O)C(Cc2ccc3ccccc3c2)N=C(c2ccc(O)cc2)c2cc(Cl)ccc21 (centres unmarked) [Bz-423]	uncompetitive	18.9 ± 6.3 µM	no fit	400 ± 100 µM	2.62 ± 0.9	3.37 ± 1.4	680 ± 100 µM	3.34 ± 1.3	–	–	–	–
COC[C@@H](C[C@H]1O[C@@](O)([C@H](O)[C@@H]2C[C@H](OC)[C@@H](O)CC/C=C(C)/C=C/[C@@H](O[C@@H]3O[C@@H](C)[C@H](OC)[C@@H](O)[C@@H]3O)[C@H](C)/C=C(C)/C=C(C)/C=C(\C)C(=O)O2)[C@H](C)[C@@H](O)[C@H]1C)OC1C[C@](C)(O)[C@@H](O[C@H]2C[C@@H](OC)[C@H](O)[C@@H](C)O2)[C@H](C)O1 (some centres unmarked) [apoptolidin]	–	–	–	–	–	–	–	–	non-competitive	–	–	–
CN1C(=O)C(Cc2ccc(OC(C)(C)C)cc2)N=C(c2ccc(O)cc2)c2cc(Cl)ccc21 (centres unmarked) [o-tert-Butyl]	uncompetitive	–	no fit	250 ± 20 µM	1.25 ± .01	1.53 ± .03	390 ± 300 µM	1.53 ± 0.03	–	decreased	decreased	–
CC[C@H]1/C=C/C=C/C[C@@H](C)[C@H](O)[C@@](C)(O)C(=O)[C@@H](C)[C@H](O)[C@@H](C)C(=O)[C@@H](C)[C@H](O)[C@@H](C)/C=C/C(=O)O[C@@H]2[C@H](C)[C@H](CC1)O[C@]1(CC[C@H](C)[C@H](C[C@@H](C)O)O1)[C@H]2C [oligomycin]	–	–	–	–	–	–	–	–	non-competitive	–	–	0.01 µM
